Tested on: RA patients
Experiment: [HDL] determination, Study 2 (RA patients, monotherapy)
Assay type: in vivo, human
Conditions: for [HDL] Mean percentage CFB - 12 weeks results / [HDL] Median percentage CFB - 12 weeks results: 50 mg q.d.
Text: Randomized, double-blind, placebo-controlled, multicenter, phase IIb dose finding study of Compound 1 (dosed as a [Compound 1:HCl:3H2O]) administered for 24 weeks as monotherapy to subjects with moderately to severely active rheumatoid arthritis who have an inadequate response to methotrexate alone
Double-blind, placebo-controlled, monotherapy study in subjects with moderately to severely active RA who have an inadequate response to methotrexate (MTX) (oral or parenteral).
280 subjects randomized to one of 3 doses of Compound 1 (dosed as a [Compound 1:HCl:3H2O]) or to placebo, given once daily (q.d.).
Twelve weeks of treatment with Compound 1 (dosed as a [Compound 1:HCl:3H2O]) at 50 mg, 100 mg, or 200 mg q.d.; or placebo. At Week 12, all subjects on placebo and the subjects on the 50 mg dose who have not achieved 20% improvement in swollen joint count (SJC66) and tender joint count (TJC68) will be assigned to 100 mg q.d. in a blinded fashion and will continue treatment until Week 24. Subjects in the other groups will maintain their randomized treatment until Week 24.
This assay relies on a homogeneous enzymatic colorimetric test. In the presence of magnesium ions, dextran sulfate selectively forms water-soluble complexes with LDL, VLDL and chylomicrons which are resistant to PEG-modified enzymes.
The cholesterol concentration of [HDL]-cholesterol is determined enzymatically by cholesterol esterase and cholesterol oxidase coupled with PEG to the amino groups (approx. 40%).
In the presence of peroxidase, the hydrogen peroxide generated reacts with 4-amino-antipyrine and Sodium N-(2-hydroxy-3-sulfopropyl)-3,5-dimethoxyaniline (HSDA) to form a purple-blue dye. The color intensity of this dye is directly proportional to the cholesterol concentration and is measured photometrically.
Human serum and plasma samples [HDL] determination was done on a Roche/Hitachi Cobas c 701/702 system which automatically calculate the analyte concentration of each sample. Samples containing precipitates are centrifuged before performing the assay.

[1] = 50 mg q.d. non responders switching to 100 mg q.d. at week 12 (N = 15), week 1
[2] = 50 mg q.d. non responders switching to 100 mg q.d. at week 12 (N = 15), week 2
[3] = 50 mg q.d. non responders switching to 100 mg q.d. at week 12 (N = 15), week 4
[4] = 50 mg q.d. non responders switching to 100 mg q.d. at week 12 (N = 15), week 8
[5] = 50 mg q.d. non responders switching to 100 mg q.d. at week 12 (N = 15), week 12
[6] = 50 mg q.d. non responders switching to 100 mg q.d. at week 12 (N = 15), week 16
[7] = 50 mg q.d. non responders switching to 100 mg q.d. at week 12 (N = 15), week 20
[8] = 50 mg q.d. non responders switching to 100 mg q.d. at week 12 (N = 15), week 24
[9] = 50 mg q.d. non responders switching to 100 mg q.d. at week 12, week 1
[10] = 50 mg q.d. non responders switching to 100 mg q.d. at week 12, week 2
[11] = 50 mg q.d. non responders switching to 100 mg q.d. at week 12, week 4
[12] = 50 mg q.d. responders (N = 57), week 1
[13] = 50 mg q.d. responders (N = 57), week 2
[14] = 50 mg q.d. responders (N = 57), week 4
[15] = 50 mg q.d. responders (N = 57), week 8
[16] = 50 mg q.d. responders (N = 57), week 12
[17] = 50 mg q.d. responders (N = 57), week 16
[18] = 50 mg q.d. responders (N = 57), week 20
[19] = 50 mg q.d. responders (N = 57), week 24

O=C(Nc1nc2cccc(-c3ccc(CN4CCS(=O)(=O)CC4)cc3)n2n1)C1CC1 [Compound 1, cyclopropanecarboxylic acid {5-[4-(1,1-dioxo-thiomorpholin-4-ylmethyl)-phenyl]-[1,2,4]triazolo[1,5-a]pyridin-2yl}-amide]
[HDL] Mean CFB (50 mg q.d. (N = 72), week 1): 0.033 mmol/L
[HDL] Median CFB (50 mg q.d. (N = 72), week 1): 0.050 mmol/L
[HDL] Mean CFB (50 mg q.d. (N = 72), week 2): 0.055 mmol/L
[HDL] Median CFB (50 mg q.d. (N = 72), week 2): 0.000 mmol/L
[HDL] Mean CFB (50 mg q.d. (N = 72), week 4): 0.102 mmol/L
[HDL] Median CFB (50 mg q.d. (N = 72), week 4): 0.100 mmol/L
[HDL] Mean CFB (50 mg q.d. (N = 72), week 8): 0.120 mmol/L
[HDL] Median CFB (50 mg q.d. (N = 72), week 8): 0.110 mmol/L
[HDL] Mean CFB (50 mg q.d. (N = 72), week 12): 0.078 mmol/L
[HDL] Median CFB (50 mg q.d. (N = 72), week 12): 0.065 mmol/L
[HDL] Mean CFB - 24 weeks results [1]: 0.08 mmol/L
[HDL] Median CFB - 24 weeks results [1]: 0.05 mmol/L
[HDL] Mean CFB - 24 weeks results [2]: 0.05 mmol/L
[HDL] Median CFB - 24 weeks results [2]: 0.04 mmol/L
[HDL] Mean CFB - 24 weeks results [3]: 0.14 mmol/L
[HDL] Median CFB - 24 weeks results [3]: 0.11 mmol/L
[HDL] Mean CFB - 24 weeks results [4]: 0.09 mmol/L
[HDL] Median CFB - 24 weeks results [4]: 0.10 mmol/L
[HDL] Mean CFB - 24 weeks results [5]: 0.15 mmol/L
[HDL] Median CFB - 24 weeks results [5]: 0.14 mmol/L
[HDL] Mean CFB - 24 weeks results [6]: 0.20 mmol/L
[HDL] Median CFB - 24 weeks results [6]: 0.21 mmol/L
[HDL] Mean CFB - 24 weeks results [7]: 0.21 mmol/L
[HDL] Median CFB - 24 weeks results [7]: 0.25 mmol/L
[HDL] Mean CFB - 24 weeks results [8]: 0.30 mmol/L
[HDL] Median CFB - 24 weeks results [8]: 0.31 mmol/L
[HDL] Mean percentage CFB - 24 weeks results [9]: 5.25%
[HDL] Median percentage CFB - 24 weeks results [9]: 3.68%
[HDL] Mean percentage CFB - 24 weeks results [10]: 4.69%
[HDL] Median percentage CFB - 24 weeks results [10]: 4.17%
[HDL] Mean percentage CFB - 24 weeks results [11]: 10.56%
[HDL] Median percentage CFB - 24 weeks results [11]: 10.14%
[HDL] Mean percentage CFB - 24 weeks results (50 mg q.d. non responders switching to 100 mg q.d. at week 12, week 8): 5.96%
[HDL] Median percentage CFB - 24 weeks results (50 mg q.d. non responders switching to 100 mg q.d. at week 12, week 12): 7.95%
[HDL] Median percentage CFB - 24 weeks results (50 mg q.d. non responders switching to 100 mg q.d. at week 12, week 16): 14.34%
[HDL] Median percentage CFB - 24 weeks results (50 mg q.d. non responders switching to 100 mg q.d. at week 12, week 20): 16.22%
[HDL] Median percentage CFB - 24 weeks results (50 mg q.d. non responders switching to 100 mg q.d. at week 12, week 24): 19.84%
[HDL] Mean CFB - 24 weeks results [12]: 0.02 mmol/L
[HDL] Median CFB - 24 weeks results [12]: 0.04 mmol/L
[HDL] Mean CFB - 24 weeks results [13]: 0.05 mmol/L
[HDL] Median CFB - 24 weeks results [13]: 0.00 mmol/L
[HDL] Mean CFB - 24 weeks results [14]: 0.09 mmol/L
[HDL] Median CFB - 24 weeks results [14]: 0.10 mmol/L
[HDL] Mean CFB - 24 weeks results [15]: 0.13 mmol/L
[HDL] Median CFB - 24 weeks results [15]: 0.14 mmol/L
[HDL] Mean CFB - 24 weeks results [16]: 0.06 mmol/L
[HDL] Median CFB - 24 weeks results [16]: 0.05 mmol/L
[HDL] Mean CFB - 24 weeks results [17]: 0.08 mmol/L
[HDL] Median CFB - 24 weeks results [17]: 0.03 mmol/L
[HDL] Mean CFB - 24 weeks results [18]: 0.11 mmol/L
[HDL] Median CFB - 24 weeks results [18]: 0.08 mmol/L
[HDL] Mean CFB - 24 weeks results [19]: 0.17 mmol/L
[HDL] Median CFB - 24 weeks results [19]: 0.10 mmol/L
[HDL] Mean percentage CFB - 24 weeks results (50 mg q.d. responders, week 1): 1.48%
[HDL] Median percentage CFB - 24 weeks results (50 mg q.d. responders, week 1): 2.78%
[HDL] Mean percentage CFB - 24 weeks results (50 mg q.d. responders, week 2): 4.14%
[HDL] Mean percentage CFB - 24 weeks results (50 mg q.d. responders, week 4): 7.26%
[HDL] Median percentage CFB - 24 weeks results (50 mg q.d. responders, week 4): 8.30%
[HDL] Mean percentage CFB - 24 weeks results (50 mg q.d. responders, week 8): 9.33%
[HDL] Median percentage CFB - 24 weeks results (50 mg q.d. responders, week 8): 8.81%
[HDL] Mean percentage CFB - 24 weeks results (50 mg q.d. responders, week 12): 4.45%
[HDL] Median percentage CFB - 24 weeks results (50 mg q.d. responders, week 12): 4.00%
[HDL] Mean percentage CFB - 24 weeks results (50 mg q.d. responders, week 16): 6.26%
[HDL] Median percentage CFB - 24 weeks results (50 mg q.d. responders, week 16): 2.82%
[HDL] Mean percentage CFB - 24 weeks results (50 mg q.d. responders, week 20): 7.61%
[HDL] Median percentage CFB - 24 weeks results (50 mg q.d. responders, week 20): 5.63%
[HDL] Mean percentage CFB - 24 weeks results (50 mg q.d. responders, week 24): 11.90%
[HDL] Mean percentage CFB - 12 weeks results (week 1): 2.27%
[HDL] Median percentage CFB - 12 weeks results (week 1): 3.23%
[HDL] Mean percentage CFB - 12 weeks results (week 2): 4.26%
[HDL] Median percentage CFB - 12 weeks results (week 2): 0.00%
[HDL] Mean percentage CFB - 12 weeks results (week 4): 7.96%
[HDL] Median percentage CFB - 12 weeks results (week 4): 8.70%
[HDL] Mean percentage CFB - 12 weeks results (week 8): 8.60%
[HDL] Median percentage CFB - 12 weeks results (week 8): 7.00%
[HDL] Mean percentage CFB - 12 weeks results (week 12): 5.77%
[HDL] Median percentage CFB - 12 weeks results (week 12): 4.67%
[HDL] Mean CFB (100 mg q.d. (N = 70), week 1): 0.085 mmol/L
[HDL] Mean CFB - 24 weeks results (100 mg q.d. (N = 70), week 1): 0.09 mmol/L
[HDL] Median CFB (100 mg q.d. (N = 70), week 1): 0.050 mmol/L
[HDL] Median CFB - 24 weeks results (100 mg q.d. (N = 70), week 1): 0.05 mmol/L
[HDL] Mean CFB (100 mg q.d. (N = 70), week 2): 0.131 mmol/L
[HDL] Mean CFB - 24 weeks results (100 mg q.d. (N = 70), week 2): 0.13 mmol/L
[HDL] Median CFB (100 mg q.d. (N = 70), week 2): 0.100 mmol/L
[HDL] Median CFB - 24 weeks results (100 mg q.d. (N = 70), week 2): 0.10 mmol/L
[HDL] Mean CFB (100 mg q.d. (N = 70), week 4): 0.194 mmol/L
[HDL] Mean CFB - 24 weeks results (100 mg q.d. (N = 70), week 4): 0.19 mmol/L
[HDL] Median CFB (100 mg q.d. (N = 70), week 4): 0.175 mmol/L
[HDL] Median CFB - 24 weeks results (100 mg q.d. (N = 70), week 4): 0.18 mmol/L
[HDL] Mean CFB (100 mg q.d. (N = 70), week 8): 0.171 mmol/L

Source: patent US10376520B2, “Methods for the treatment of cardiovascular disorders” (Galapagos NV, priority 2015, dated 2019)
